{"source": "paper PMC12483202", "about": "“Pharmacokinetic profile of oral firocoxib in the koala (Phascolarctos cinereus)” (PLOS One, 2025)", "key": {"[1]": {"assay": "Firocoxib binding to plasma proteins, ultrafiltration", "type": "in vitro ADME", "settings": "pooled plasma, pH 7.4, firocoxib 500 ng/mL, corrected for non-specific binding, thawed frozen plasma, read-out: corrected percentage bound to plasma proteins (converted)", "experimental": "The percentage of firocoxib bound to koala plasma proteins was determined using the ultrafiltration method using a modified protocol. As firocoxib plasma protein binding (PPB) has been reported in horses, archived horse plasma (obtained under The University of Sydney approved animal ethics protocol: 2015/736) was tested simultaneously alongside koala plasma to compare the percentage of firocoxib bound to equine plasma proteins. The total plasma protein concentration in the koala samples was determined using Vetscan® VS2 chemistry analyser (Comprehensive Diagnostic Profile), (Zoetis Australia Pty Ltd., Rhodes, NSW). Firocoxib dissolved in dimethyl sulfoxide (to reduce non-specific binding) at a concentration of 500 ng/mL, was added to 1 mL of thawed pooled blank koala or horse plasma, the pH was adjusted to 7.4, and then incubated in a water bath at 37 °C for 30 min. […] Both fractions were analysed by HPLC as described above. All samples were analysed as duplicates. The percentage of substrate binding to plasma proteins was calculated using the equation: […]\n(§1) The same concentrations of firocoxib were added to phosphate buffered saline and underwent ultrafiltration to determine non-specific binding to the filtration membrane. Thereafter the corrected percentage of substrate binding to plasma proteins was calculated as: […]"}, "[2]": {"assay": "Non-specific binding to the filtration membrane (phosphate buffered saline)", "type": "in vitro ADME", "settings": "at a concentration of 250 ng/mL", "experimental": "as §1"}, "[3]": {"test_system": "koalas", "assay": "Clinical observations, haematology and biochemistry after repeat dosing", "type": "in vivo, koala (Phascolarctos cinereus)", "settings": "for Phos: reference interval 0.87-2.47", "quoted_text": "Samples were centrifuged at 1500 x g for 10 minutes, within 1 h of collection; the plasma was immediately stored at –80 °C and protected from light until drug quantification. […] Clinical observations for the presence of adverse effects in the animals treated included measurement of vital signs, appetite, body weight, faecal consistency and overall behaviour and mobility."}, "[4]": {"settings": "cited from earlier work"}, "[5]": {"set-up": "method as in ref [4] of S9 Table", "settings": "Rabbits (6); PO 3.74 -4.20 mg/kg; ref [4] of S9 Table; cited from earlier work"}, "[6]": {"set-up": "method as in ref [6] of S9 Table", "settings": "Pigs (7); PO 4.0 mg/kg; ref [6] of S9 Table; cited from earlier work"}, "[7]": {"set-up": "method as in ref [7] of S9 Table", "settings": "Calves (10); PO 0.5 mg/kg; ref [7] of S9 Table; cited from earlier work"}, "[8]": {"set-up": "method as in ref [8] of S9 Table", "settings": "Goats (10), ref [8] of S9 Table, cited from earlier work"}, "[9]": {"set-up": "method as in ref [9] of S9 Table", "settings": "Rhinoceros (5); PO 0.1 mg/kg; ref [9] of S9 Table; cited from earlier work"}, "[10]": {"test_system": "equine plasma proteins", "set-up": "method as in PMID 17472652", "settings": "radiolabelled firocoxib; cited from earlier work"}, "[11]": {"test_system": "cats", "set-up": "method as in PMID 16111170", "settings": "cited from earlier work"}, "[12]": {"test_system": "urate crystal-induced synovitis in dogs", "set-up": "method as in ref 38 = [38]; 38 Dauteloup C , Pichou C , Beugnet F . Assessment of the efficacy of firocoxib and robenacoxib in an induced synovitis model of acute arthritis in dogs . International Journal of Applied Research in", "settings": "cited from earlier work"}, "[13]": {"test_system": "equine ischaemic intestinal injury", "set-up": "method as in PMID 19645580", "settings": "cited from earlier work"}, "[14]": {"test_system": "ovariohysterectomised cats", "set-up": "method as in PMID 27515266", "settings": "3 mg/kg/day, cited from earlier work"}, "[15]": {"settings": "Horses (6), PO 0.1 mg/kg, ref [1] of S9 Table"}, "[16]": {"settings": "Horses (12), IV 0.1 mg/kg, ref [3] of S9 Table"}, "[17]": {"settings": "Horses (12), PO 0.1 mg/kg, ref [3] of S9 Table"}}, "note": "Like-named read-outs stand apart in the source and are kept apart here.", "data": [{"smiles": "CC1(C)OC(=O)C(OCC2CC2)=C1c1ccc(S(C)(=O)=O)cc1", "note": "[firocoxib]", "values": [{"measurement": "fraction unbound at 30 min, 500 ng/mL", "setting": "[1]; horse plasma", "value": 0.147}, {"measurement": "fraction unbound at 30 min, 500 ng/mL", "setting": "[1]; koala plasma", "value": 0.153}, {"measurement": "non-specific binding of firocoxib", "setting": "[2]", "value": 4.06, "unit": "%"}, {"measurement": "appetite, behaviour and mobility", "setting": "[3]; in vivo", "value": "no change from normal appetite, behaviour and mobility"}, {"measurement": "body weight", "setting": "[3]; in vivo", "value": "maintained stable body weight"}, {"measurement": "Phos", "setting": "[3]; koala K2, 72 h, after repeated dosing 5 mg/kg every 12 h", "value": 1.48, "unit": "mmol/L"}, {"measurement": "Phos", "setting": "[3]; koala K6, 72 h, after repeated dosing 5 mg/kg every 12 h", "value": 1.37, "unit": "mmol/L"}, {"measurement": "Na", "setting": "[3]; koala K6, 72 h, after repeated dosing 5 mg/kg every 12 h, reference interval 132-143", "value": 139, "unit": "mmol/L"}, {"measurement": "Cmax", "setting": "[4]; [15]", "value": 58.0, "unit": "ng/mL"}, {"measurement": "Tmax", "setting": "[4]; [15]", "value": 3.2, "unit": "h"}, {"measurement": "t1/2", "setting": "[4]; [15]", "value": 32.77, "unit": "h"}, {"measurement": "Cmax", "setting": "[4]; [16]", "value": 210, "unit": "ng/mL"}, {"measurement": "t1/2", "setting": "[4]; [16]", "value": 34, "unit": "h"}, {"measurement": "Cmax", "setting": "[4]; [17]", "value": 75, "unit": "ng/mL"}, {"measurement": "Tmax", "setting": "[4]; [17]", "value": 3.9, "unit": "h"}, {"measurement": "t1/2", "setting": "[4]; [17]", "value": 30, "unit": "h"}, {"measurement": "Absolute oral bioavailability", "setting": "[4]; horses dosed at 0.1 mg/kg", "value": 79, "unit": "%"}, {"measurement": "Cl", "setting": "[4]; horses", "value": 0.617, "unit": "mL/min/kg"}, {"measurement": "Tmax (mean)", "setting": "[4]; horses", "value": 3.2, "unit": "h"}, {"measurement": "Vd", "setting": "[4]; horses", "value": 1.7, "unit": "L/kg"}, {"measurement": "plasma elimination half-life", "setting": "[4]; horses", "value": 32.8, "unit": "h"}, {"measurement": "Cmax", "setting": "[4]; horses, oral 0.1 mg/kg", "value": 58, "unit": "ng/mL"}, {"measurement": "Cmax", "setting": "[5]", "value": 160, "unit": "ng/mL"}, {"measurement": "Tmax", "setting": "[5]", "value": 3.81, "unit": "h"}, {"measurement": "t1/2", "setting": "[5]", "value": 9.12, "unit": "h"}, {"measurement": "Cmax", "setting": "[6]", "value": 60, "unit": "ng/mL"}, {"measurement": "Tmax", "setting": "[6]", "value": 7.41, "unit": "h"}, {"measurement": "t1/2", "setting": "[6]", "value": 24.075, "unit": "h"}, {"measurement": "Cmax", "setting": "[7]", "value": 127.9, "unit": "ng/mL"}, {"measurement": "t1/2", "setting": "[7]", "value": 18.8, "unit": "h"}, {"measurement": "t1/2", "setting": "[8]; IV 0.5 mg/kg", "value": 26.41, "unit": "h"}, {"measurement": "Cmax", "setting": "[8]; PO 0.5 mg/kg", "value": 139, "unit": "ng/mL"}, {"measurement": "Tmax", "setting": "[8]; PO 0.5 mg/kg", "value": 0.77, "unit": "h"}, {"measurement": "t1/2", "setting": "[8]; PO 0.5 mg/kg", "value": 21.51, "unit": "h"}, {"measurement": "Cmax", "setting": "[9]", "value": 15.7, "unit": "ng/mL"}, {"measurement": "t1/2", "setting": "[9]", "value": 4.96, "unit": "h"}, {"measurement": "bound in horse plasma", "setting": "[10]", "value": 97, "unit": "%"}, {"measurement": "antipyretic activity", "setting": "[11]", "value": "antipyretic activity"}, {"measurement": "peak vertical force and weight-bearing capacity", "setting": "[12]", "value": "efficacy in improving the peak vertical force and weight-bearing capacity"}, {"measurement": "visceral analgesia", "setting": "[13]; equine ischaemic intestinal injury", "value": "efficacious visceral analgesia"}, {"measurement": "mucosal barrier function recovery", "setting": "[13]; firocoxib compared with flunixin meglumine", "value": "superior mucosal barrier function recovery"}, {"measurement": "postoperative analgesia", "setting": "[14]; 1 h prior to induction of anaesthesia and at 24 and 48 h post-surgery", "value": "some analgesia"}, {"measurement": "azotaemia", "setting": "[14]; 72 h after surgery", "value": "two out of eight cats developed a reversible azotaemia"}]}]}
